Q: With `Cn1nc(-c2c(Cl)cncc2Cl)nc1-c1ccc(Cl)cc1Cl` [Compound 7] as the molecule, how does the melting point read?
A: The melting point was 79 to 81 °C.

Q: Which melting point does the source give for `Cn1nc(-c2nc(Cl)ccc2Cl)nc1-c1ccc(Cl)cc1` [Compound 156] here?
A: Its melting point is 98 to 102 °C.

Q: With `Cn1nc(-c2ncc(Cl)cc2Cl)nc1-c1ccc(Cl)cc1` [Compound 158] as the molecule, how does the melting point read?
A: Its melting point is 105 to 107 °C.

Q: Which melting point does the source give for `Cn1nc(-c2c(Cl)cncc2Cl)nc1C1(C)CC1(Cl)Cl` (centres unmarked) [Compound 133, 3-(3,5 dichloro-4-pyridyl)-5-(2,2-dichloro-1-methylcyclopropyl)-1-methyl[1,2,4]triazole] here?
A: The melting point was 79 to 83 °C.

Q: For `Cc1ccc(-c2nc(-c3ncccc3Cl)nn2C)cc1` [Compound 159], which melting point is on record?
A: The melting point was 113 to 117 °C.

Q: Which melting point does the source give for `Cn1nc(-c2nc(F)c(F)c(F)c2F)nc1-c1ccc(Cl)cc1` [Compound 155] here?
A: Its melting point is 154 to 156 °C.

Q: For `Cc1nc(-c2c(Cl)cncc2Cl)nn1-c1ccc(Cl)cc1` [Example 19, 1-(4-Chlorophenyl)-5-methyl-3-(3,5-dichloro-4-pyridyl)-1H-1,2,4-triazole], which melting point is on record?
A: Its melting point is 142 to 145 °C.

Q: For `Cn1nc(-c2c(Cl)cncc2Cl)nc1-c1ccncc1` [Compound 113], which melting point is on record?
A: Its melting point is 130 to 132 °C.

From US6413992B1, “3-(substituted pyridyl)-1,2,4-triazole compounds” (Dow AgroSciences LLC, priority 1998, dated 2002)
